Test results from US20050233470A1, “Methods and compound mixtures for determining protein activity using nmr spectroscopy” (priority 2002, published 2005).

Conditions: rat, in vivo
Experimental: Urine samples were collected immediately before administration and then at 1 h and 2.5 h after administration. […] Blood samples were collected immediately before administration and then at 1, 2 and 3 h after administration. After collection, blood samples were spun down at 2000 rpm for 10 min. and the plasma was collected. Both, plasma and urine samples were frozen at −20° C.
Aliquots of the stock solution ([…]) were mixed with 40 μl biofluid (urine or blood plasma) to give a 15 mM trityl radical solution. These solutions were dispensed as droplets into liquid nitrogen to provide the material as vitrified pellets suitable for hyperpolarisation. The solid samples were placed in turn within the DNP magnet and hyperpolarised overnight. The samples were dissolved by injection of a mixture of methanol and acetic acid (100:1). The dissolved samples were quickly manually transferred (approx. 4 s transfer time) to a high-resolution magnet of 9.4 T and single acquisition ^13C-1D-NMR-spectra were acquired.
Quantification of the unknown amount of probe compound/metabolites in the biofluid samples was based on these enhancements and the known amount of probe compound/metabolite used to generate them. […]

Row | Structure (SMILES) | Signals present in NMR spectrum of urine sample
1 | N=C(N)N1Cc2ccccc2C(O)C1 (centres unmarked) [4-OH-Debrisoquine, 4-hydroxy-debrisoquine] | present
2 | N=[13C](N)N1CCc2ccccc2C1 [Debrisoquine] | present
